Consider 6 compounds from ChEMBL document CHEMBL4052737, “3-Oxo-γ-costic acid fungal-transformation generates eudesmane sesquiterpenes with in vitro tumor-inhibitory activity” (Bioorg Med Chem Lett, 2017).

Common to all, as to type: functional, cell-based
The test system of experiment [1] is Caco-2. As to the kind of experiment: Antiproliferative activity against human Caco2 cells after 48 hrs by MTT assay. As to conditions: for IC50: Caco-2, 48 h.
The test system of experiment [2] is A549. As to the kind of experiment: Antiproliferative activity against human A549 cells after 48 hrs by MTT assay. As to conditions: for IC50: A549, 48 h.
The test system of experiment [3] is Caco-2. As to the kind of experiment: Induction of morphological changes in human Caco2 cells assessed as monolayer disruption at 50 uM by bright field phase contrast microscopy.
For experiment [4], the system named is Caco-2. As to the kind of experiment: Induction of morphological changes in human Caco2 cells assessed as cell shrinkage at 50 uM by bright field phase contrast microscopy.

SMILES strings stand for the structures. The source made the active and inactive calls. The rule behind the calls is not given here.

In the case of `C=C(C(=O)O)[C@@H]1CC[C@@]2(C)C[C@H](O)C(=O)C(C)=C2C1`, in experiment [1], the Activity result was “Dose-dependent effect” and the half-maximal inhibitory concentration (IC50) was 60 µM. In experiment [2], the Activity result is “Dose-dependent effect” and the IC50 was > 100 µM.

Regarding `C=C(C(=O)O)[C@@H]1CC[C@]2(C)C(=C(C)C(=O)[C@@H](O)[C@H]2O)C1`, the Activity result in experiment [1] and in experiment [2] was “Dose-dependent effect” each time. Besides, the values for the 50% inhibitory concentration (IC50) in experiment [1] and in experiment [2] were 66 µM and 74 µM, respectively.

For `C=C(C(=O)O)[C@@H]1CC[C@]2(C)C(=C(C)C(=O)C[C@H]2O)C1`, in experiment [1], the Activity entry was “Dose-dependent effect” and the IC50 was 75 µM. For the same compound, in experiment [2], the Activity result was “Dose-dependent effect” and the half-maximal inhibitory concentration (IC50) was > 100 µM.

Turning to `C=C(C(=O)O)[C@@H]1CC[C@@]2(C)C=CC(=O)C(C)=C2C1`, the Activity entry in experiment [1] and in experiment [2] was “Dose-dependent effect” in each case. The concentration for half-maximal inhibition (IC50) in experiment [1] was 66 µM; in experiment [2], > 100 µM.

In the case of `C=C(C(=O)O)[C@@H]1CC[C@@]2(C)CCC(=O)C(C)=C2C1`, the Activity result in experiment [1] and in experiment [2] was “Dose-dependent effect” each time. Also, the IC50 is 39 µM in experiment [1] and > 100 µM in experiment [2]. The outcome in experiment [3] and in experiment [4] was Active.

Take `C=C(C(=O)O)[C@@H]1CC[C@@]2(C)C=C(O)C(=O)C(C)=C2C1`: the Activity entry in experiment [1] and in experiment [2] was “Dose-dependent effect” in each case. The IC50 in experiment [1] is 46 µM; in experiment [2] it was > 100 µM.
